Experimental findings from US20260285903A1, “SYNTHESIZED BIOLOGICALLY ACTIVE COMPOUNDS AND METHODS OF MAKING AND USING” (Georgia State University Research Foundation, Inc., priority 2023, published 2026) are described below.

“Also recorded” adds a separate entry of the source. Where two headings read alike, the source gives them in different places.

Data set [1] is described as follows: Chemical stability at various pH / in acidic PBS (HPLC). The format is physicochemical. The source says: The main reason for failure in drug development is poor biopharmaceutical properties, which include low aqueous solubility, chemical instability.
The biopharmaceutical properties of the synthesized M13 (5-glutathione-6-shogaol) were characterized.

The subject of data set [2] is tester TA100. Put plainly: Ames test (bacterial reverse mutation), strain TA100. To be noted: TA100, all tested concentrations. The format is cell-based, Salmonella typhimurium. How it is done: The mutagenic potential of M13 was assessed using the Ames test. The Ames test, or bacterial reverse mutation test, introduced by Bruce Ames and his group in the early 1970s, is currently widely employed to assess the mutagenic potential of chemical compounds. In this biological assay, several strains of Salmonella ryphimurium carrying mutations in genes responsible for histidine synthesis are used, so these strains cannot produce this critical amino acid. […]
M13 at concentrations of […] and positive (NaN3; 2-nitrofluorene (NF) and 2-amonoanthracene) and negative (PBS) controls were tested on two tester strains; TA98 reverted from histidine dependence (auxotrophy) to histidine independence (prototrophy) by frameshift mutagens and tester TA100 reverted by mutagens that cause both frameshift and base pair substitution mutations. The colony numbers on the negative, positive control and M13 treated plates were determined by manual counting. The mean number of revertants per plate, the standard deviation, and the mutation factor (i.e., mean number of revertants on the test item plate/mean number of revertants on the vehicle plate) were calculated.
Next, the mutagenic potential of M13 using a Salmonella typhimurium reverse mutation assay were assessed (Ames test). […]

Data set [3] is described as follows: Single-dose maximum tolerated dose (MTD) general toxicity study. The format is in vivo, CD-1 mice. On the procedure: A general toxicity study was performed by using maximum tolerated dose (MTD) of M13. Eight-week old mice were orally administered 1000 mg/kg or with PBS. On day one and day 7, mice were examined for weight loss and clinical scores were noted. Clinical signs were scored by assessing activity, appearance, and body condition for seven days.
To further determine the potential acute toxicity of M13 in vivo, a single-dose maximum tolerated dose (MTD) study of M13 was performed in CD-1 mice. Eight-week-old female mice were orally administered a single dose of M13 (1000 mg/kg) or PBS (as control) on day 0 and subjected to regular water and diet for 7 days.

Data set [4] deals with CDK6 (Homo sapiens, UniProt Q00534). Put plainly: Radiometric 33P kinase assay, 376 Wild Type Kinase Panel. The format is biochemical. To be noted: 20 μM M13, 10 μM ATP; read-out: inhibition of enzyme activity relative to control. An excerpt:
(§1) It was hypothesized that M13 may target kinases to reduce the inflammatory response. Determination and improvement of the selectivity of a compound by screening a large part of the kinome are of pivotal importance in the discovery of M13 signaling pathways for its anti-inflammatory activities. Radiometric assays were used based on the transfer of ^33P-labeled phosphate from ATP to the kinase substrates found in the 376 Wild Type Kinase Panel and 17 Lipid Kinase Panel (Reaction Biology) and a broad kinase selectivity screen for the inhibitory activity of M13 was performed. Briefly, radiometric assays are based on the transfer of 10 μM ^33P-labelled phosphate from ATP to the kinase substrate. […] FIGS. 2A and 2B show the targeted inhibitor effects of M13 on lipid kinases (FIG. 2A) and protein kinases (FIG. 2B).

For data set [5], the target named is RIPK4 (Homo sapiens, UniProt P57078). The description is as above. The following applies: 20 μM M13, 10 μM ATP; read-out: inhibition of enzyme activity relative to control. The format is biochemical.
Description: as §1

Data set [6] has as its target TRKB (Homo sapiens, UniProt Q16620). The description is as above. The format is biochemical. To be noted: 20 μM M13, 10 μM ATP; read-out: inhibition of enzyme activity relative to control.
Description: as §1

Data set [7] deals with SARS-CoV-2. Put plainly: SARS-CoV-2 infectivity IF assay (Nucleocapsid staining) in Vero cells. To be noted: Vero cells pre-incubated 60 minutes prior to infection, 24 hours, read-out: EC50 antiviral activity against SARS-CoV-2. The format is cell-based. How it is done: Cells were seeded in complete media at 8000 cells/100 μl/well in four plates: two for the cytotoxicity assay and two for the infectivity assay. After seeding, the plates were incubated at room temperature for 5 minutes for even distribution, and then at 37° C., 5% CO2 until the following day.
Formulations were prepared at twice the final concentration, and they were diluted to the final desired concentration by an equal volume of virus or media. The initial amounts weighted and the volume in which these were resuspended are recorded.
The prepared stocks (0.5 mg/ml) were diluted in 800 μl of infection media to twice the final drug concentration (200 μM). […]
Residual formaldehyde was quenched with 50 mM Ammonium Chloride, after which cells were permeabilized (0.1% Triton X 100) and stained with an antibody recognizing SARS-CoV2 Nucleocapsid protein (Thermo Fisher MA536271). The primary antibody was detected with an Alexa-488 conjugate secondary antibody (Life Technologies, A21207), and nuclei were stained with Hoechst. Images were acquired on a Cell-Insight CX5 high content platform (Thermo Scientific) using a 4× objective, and percentage infection calculated using CellInsight CX5 software (infected cells/total cells×100).
Normalized percentages of inhibition were calculated using the following formula: […]

Data set [8] has as its system cancer-related proteins. Put plainly: Proteome Profiler Human XL Oncology Array on Caco-2/BBe cell lysates. The format is cell-based. The following applies: 24 hours. On the procedure: (§2) The mechanism by which M13 exerts its anti-cancer effects was explored. Cell lysates of Caco-2/BBe cells incubated for 24 hours with free M13, NL, or M13-NL were hybridized on cancer-related protein array membranes (Proteome Profiler™ Human XL Oncology Array), and cell cycle control/phosphorylation profiling protein antibody microarray slides (Cell Cycle Control Phospho Antibody Array).

The test system of data set [9] is cell cycle control/phosphorylation proteins. Put plainly: Cell Cycle Control Phospho Antibody Array on Caco-2/BBe cell lysates. The format is cell-based, human. To be noted: 24 hours. On the procedure: as §2
[10] abbreviates: CD-1 mice, single oral dose 1000 mg/kg, day 7.

Sequence of RIPK4 (P57078 whole entry): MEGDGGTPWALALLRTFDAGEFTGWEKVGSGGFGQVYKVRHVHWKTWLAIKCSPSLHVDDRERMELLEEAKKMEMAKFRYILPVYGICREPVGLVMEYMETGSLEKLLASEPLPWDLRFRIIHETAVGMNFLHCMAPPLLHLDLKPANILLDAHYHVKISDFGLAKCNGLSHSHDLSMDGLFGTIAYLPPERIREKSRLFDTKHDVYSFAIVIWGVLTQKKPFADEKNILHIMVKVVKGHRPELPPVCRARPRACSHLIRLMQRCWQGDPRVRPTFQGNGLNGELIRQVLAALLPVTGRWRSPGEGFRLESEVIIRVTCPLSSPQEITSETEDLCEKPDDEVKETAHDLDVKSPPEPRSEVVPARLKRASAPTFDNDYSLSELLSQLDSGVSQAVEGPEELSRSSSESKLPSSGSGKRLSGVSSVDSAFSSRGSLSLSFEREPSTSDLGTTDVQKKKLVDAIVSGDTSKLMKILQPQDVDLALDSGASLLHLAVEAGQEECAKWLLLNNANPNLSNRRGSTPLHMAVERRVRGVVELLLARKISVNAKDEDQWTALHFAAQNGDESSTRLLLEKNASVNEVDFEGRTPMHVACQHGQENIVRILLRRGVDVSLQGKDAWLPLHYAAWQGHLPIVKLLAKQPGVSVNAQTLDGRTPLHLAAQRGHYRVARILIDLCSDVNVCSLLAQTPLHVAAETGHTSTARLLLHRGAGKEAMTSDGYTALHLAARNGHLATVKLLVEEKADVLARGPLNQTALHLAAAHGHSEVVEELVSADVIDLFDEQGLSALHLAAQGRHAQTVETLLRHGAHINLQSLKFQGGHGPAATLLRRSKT
Sequence of TRKB (Q16620 32-822): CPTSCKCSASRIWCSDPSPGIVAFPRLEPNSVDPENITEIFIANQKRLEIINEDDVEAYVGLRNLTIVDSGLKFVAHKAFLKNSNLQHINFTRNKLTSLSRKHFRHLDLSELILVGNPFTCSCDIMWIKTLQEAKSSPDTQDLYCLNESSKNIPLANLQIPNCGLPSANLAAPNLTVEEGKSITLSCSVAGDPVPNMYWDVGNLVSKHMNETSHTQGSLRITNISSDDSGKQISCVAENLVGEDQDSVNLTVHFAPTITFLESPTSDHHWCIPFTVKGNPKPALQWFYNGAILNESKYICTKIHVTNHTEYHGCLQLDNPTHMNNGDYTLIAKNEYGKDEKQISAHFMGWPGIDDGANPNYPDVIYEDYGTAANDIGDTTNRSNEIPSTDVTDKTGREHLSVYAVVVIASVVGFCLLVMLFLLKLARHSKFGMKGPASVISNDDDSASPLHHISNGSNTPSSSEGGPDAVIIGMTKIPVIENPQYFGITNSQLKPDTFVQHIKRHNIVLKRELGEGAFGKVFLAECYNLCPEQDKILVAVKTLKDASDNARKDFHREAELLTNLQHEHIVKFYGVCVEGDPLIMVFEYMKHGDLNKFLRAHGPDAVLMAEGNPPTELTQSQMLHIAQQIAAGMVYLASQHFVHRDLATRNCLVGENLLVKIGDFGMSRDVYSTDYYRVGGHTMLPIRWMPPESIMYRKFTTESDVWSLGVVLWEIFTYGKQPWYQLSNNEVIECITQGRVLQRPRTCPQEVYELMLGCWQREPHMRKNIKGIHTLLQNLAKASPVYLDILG
Sequence of CDK6 (Q00534 whole entry): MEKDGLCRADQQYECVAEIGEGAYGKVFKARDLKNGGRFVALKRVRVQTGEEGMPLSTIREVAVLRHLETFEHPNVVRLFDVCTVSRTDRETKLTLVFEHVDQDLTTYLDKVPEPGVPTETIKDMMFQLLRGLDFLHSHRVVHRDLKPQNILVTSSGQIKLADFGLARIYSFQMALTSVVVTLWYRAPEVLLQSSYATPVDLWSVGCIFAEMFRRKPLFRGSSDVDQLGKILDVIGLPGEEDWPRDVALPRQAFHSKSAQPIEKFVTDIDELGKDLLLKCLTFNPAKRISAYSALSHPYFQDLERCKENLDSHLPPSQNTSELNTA

For the compound `CCCCCC(CC(=O)CCc1ccc(O)c(OC)c1)SCC(NC(=O)CCC(N)C(=O)O)C(=O)NCC(=O)O` (stereo not shown) [M13, 5-glutathione-6-shogaol], the “relative content of M13 before and after incubation (HPLC)” value in [1] (37° C., 2 h, acidic PBS (pH=5.0 or 3.0)) was “consistent before and after incubation”. The “stability at various pH levels” value in data set [1] (pH 2 to pH 10) was “very stable”. Besides, in data set [2], the revertant colony numbers result was “did not demonstrate an increase in revertant colony numbers; also recorded: did not increase the number of revertant colonies”. Also, in data set [3] (CD-1 mice, single oral dose 1000 mg/kg, 7 days, vs PBS), the “death or differences in physiological indices” value is “no significant death or differences”. For the same compound, the “body weight change, spleen-to-body weight ratio, blood physiological and biochemical indices” value in [3] (setting [10]) is “no significant difference”. Further, the “pathological signs in the anatomical organs” value in data set [3] (setting [10]) is “no pathological signs”. In addition, the MTD at 168 h in [3] (mouse, in vivo, single-dose oral, mice) was > 1000 mg/kg. The “weight loss and clinical signs” value in data set [3] (oral 1000 mg/kg, seven days of observation, vs PBS) was “No significant changes”. Besides, the “white blood cell number, red blood cell number, hemoglobin levels, parameters of hepatic or renal function” value in [3] (oral 1000 mg/kg, vs PBS) is “no significant differences”. Also, the inhibition at 20 µM in data set [4], in data set [5] and in data set [6] was 30 to 45% each time. For the same compound, the EC50 in data set [7] (Severe acute respiratory syndrome coronavirus 2, Vero) was ~36 µM; in [7], 35.8 µM. Besides, the “22 cancer-related proteins, expression vs control group” value in [8] was “significantly down-regulated”. Further, the “CDC25A and phosphorylated CDC25A (p-CDC25A) vs control and NL groups” value in [9] is “down-regulated”.
